Laboratory results taken from ChEMBL document CHEMBL1240316, “An oxidation-sensing mechanism is used by the global regulator MgrA in Staphylococcus aureus” (2006).
Calls of active or inactive are those of the source. No cut-off for these calls is given here.

Tests used:
Format in all cases: functional, organism-based
Staphylococcus aureus [1] = experiment: Antimicrobial activity against Staphylococcus aureus assessed as visible growth at 0.20 ug/ml after 24 hrs in presence of 25 uM paraquat
Staphylococcus aureus [2] = experiment: Antimicrobial activity against Staphylococcus aureus expressing mgrA C12S mutant gene harboring Pyj335-His-mgrAC12S assessed as visible growth at 0.20 ug/ml after 24 hrs in presence of 100 uM hydrogen peroxide
Staphylococcus aureus [3] = experiment: Antimicrobial activity against Staphylococcus aureus expressing mgrA C12S mutant gene harboring Pyj335-His-mgrA assessed as visible growth at 0.55 ug/ml after 24 hrs
Staphylococcus aureus [4] = experiment: Antimicrobial activity against Staphylococcus aureus expressing mgrA C12S mutant gene harboring Pyj335-His-mgrA assessed as visible growth at 0.75 ug/ml after 24 hrs in presence of 20 uM paraquat
Staphylococcus aureus [5] = experiment: Antimicrobial activity against Staphylococcus aureus assessed as visible growth at 0.65 ug/ml after 24 hrs
Staphylococcus aureus [6] = experiment: Antimicrobial activity against Staphylococcus aureus assessed as visible growth at 0.20 ug/ml after 24 hrs in presence of 100 uM hydrogen peroxide
Staphylococcus aureus [7] = experiment: Antimicrobial activity against Staphylococcus aureus expressing mgrA C12S mutant gene harboring Pyj335-His-mgrA assessed as visible growth at 0.35 ug/ml after 24 hrs
Staphylococcus aureus [8] = experiment: Antimicrobial activity against Staphylococcus aureus expressing mgrA C12S mutant gene assessed as visible growth at 0.20 ug/ml after 24 hrs
Staphylococcus aureus [9] = experiment: Antimicrobial activity against Staphylococcus aureus expressing mgrA C12S mutant gene harboring Pyj335-His-mgrA C12S assessed as visible growth at 0.20 ug/ml after 24 hrs
Staphylococcus aureus [10] = experiment: Antimicrobial activity against Staphylococcus aureus assessed as visible growth at 0.55 ug/ml after 24 hrs in presence of 20 uM paraquat
Staphylococcus aureus [11] = experiment: Antimicrobial activity against Staphylococcus aureus expressing mgrA C12S mutant gene assessed as visible growth at 0.45 ug/ml after 24 hrs
Staphylococcus aureus [12] = experiment: Antimicrobial activity against Staphylococcus aureus expressing mgrA C12S mutant gene harboring Pyj335-His-mgrA assessed as visible growth at 2.2 ug/ml after 24 hrs
Staphylococcus aureus [13] = experiment: Antimicrobial activity against Staphylococcus aureus expressing mgrA C12S mutant gene harboring plasmid Pyj335 assessed as visible growth at 2.6 ug/ml after 24 hrs
Staphylococcus aureus [14] = experiment: Antimicrobial activity against Staphylococcus aureus expressing mgrA C12S mutant gene harboring Pyj335-His-mgrA assessed as visible growth at 1 ug/ml after 24 hrs in presence of 20 uM paraquat
Staphylococcus aureus [15] = experiment: Antimicrobial activity against Staphylococcus aureus expressing mgrA C12S mutant gene harboring plasmid Pyj335-His-mgrA assessed as visible growth at 1.1 ug/ml after 24 hrs
Staphylococcus aureus [16] = experiment: Antimicrobial activity against Staphylococcus aureus expressing mgrA C12S mutant gene harboring plasmid Pyj335 assessed as visible growth at 0.6 ug/ml after 24 hrs
Staphylococcus aureus [17] = experiment: Antimicrobial activity against Staphylococcus aureus expressing mgrA C12S mutant gene harboring Pyj335-His-mgrA assessed as visible growth at 2.6 ug/ml after 24 hrs in presence of 20 uM paraquat
Staphylococcus aureus [18] = experiment: Antimicrobial activity against Staphylococcus aureus expressing mgrA C12S mutant gene harboring Pyj335-His-mgrA assessed as visible growth at 1 ug/ml after 24 hrs
Staphylococcus aureus [19] = experiment: Antimicrobial activity against Staphylococcus aureus assessed as visible growth at 1.1 ug/ml after 24 hrs in presence of 100 uM hydrogen peroxide
Staphylococcus aureus [20] = experiment: Antimicrobial activity against Staphylococcus aureus expressing mgrAC12S mutant gene harboring plasmid Pyj335 assessed as visible growth at 1.1 ug/ml after 24 hrs in presence of 100 uM hydrogen peroxide

SMILES	Activity (Staphylococcus aureus [1])	Activity (Staphylococcus aureus [2])	Activity (Staphylococcus aureus [3])	Activity (Staphylococcus aureus [4])	Activity (Staphylococcus aureus [5])	Activity (Staphylococcus aureus [6])	Activity (Staphylococcus aureus [7])	Activity (Staphylococcus aureus [8])	Activity (Staphylococcus aureus [9])	Activity (Staphylococcus aureus [10])	Activity (Staphylococcus aureus [11])	Activity (Staphylococcus aureus [12])	Activity (Staphylococcus aureus [13])	Activity (Staphylococcus aureus [14])	Activity (Staphylococcus aureus [15])	Activity (Staphylococcus aureus [16])	Activity (Staphylococcus aureus [17])	Activity (Staphylococcus aureus [18])	Activity (Staphylococcus aureus [19])	Activity (Staphylococcus aureus [20])
O=C(O)c1cn(C2CC2)c2cc(N3CCNCC3)c(F)cc2c1=O [CIPROFLOXACIN]	Active	Active	Active	Active	Active	Active	Active	inactive	Active	Active	inactive									
CN[C@H](CC(C)C)C(=O)N[C@H]1C(=O)N[C@@H](CC(N)=O)C(=O)N[C@H]2C(=O)N[C@H]3C(=O)N[C@H](C(=O)N[C@H](C(=O)O)c4cc(O)cc(O)c4-c4cc3ccc4O)[C@H](O)c3ccc(c(Cl)c3)Oc3cc2cc(c3O[C@@H]2O[C@H](CO)[C@@H](O)[C@H](O)[C@H]2O[C@H]2C[C@](C)(N)[C@H](O)[C@H](C)O2)Oc2ccc(cc2Cl)[C@H]1O [VANCOMYCIN]												Active	Active	inactive	Active	inactive	Active	inactive	Active	inactive
